Measured values reported in patent publication US20110059869A1, “Method for Increasing Enzymatic Reactivity” (RIKEN, priority 2008, published 2011).

How the values were obtained:
[1] = system: DNA polymerase; assay: Solexa sequencing system, cluster amplification reaction on DNA-immobilized chip; assay type: biochemical; conditions: for num of CAGE tag / num of sequence read: trehalose 0.6 M in cluster amplification
Description: The Solexa sequencing system incorporates the steps of adsorbing, immobilizing, and amplifying a DNA template on a flat chip. An examination was conducted to see how the sequence analysis level would change due to the addition of trehalose in the template amplification reaction of the Solexa sequencing system.
In the process of the Solexa sequencing system, attention was focused on the cluster amplification reaction conducted on a DNA-immobilized chip. In this reaction, DNA immobilized on the chip was amplified with DNA polymerase to obtain identical fragments referred to as a cluster (Scheme 9). Amplification was conducted by adding trehalose to the reaction solution to a final concentration of 0.6 M, and a comparison was made with the results obtained when no trehalose was added (FIG. 10). The sample employed here was a 27 by DNA fragment that had been prepared by the CAGE method (obtained by cleaving just 27 by off of the 5′ end of cDNA).
In the same manner as in 10 above, trehalose was added to a final concentration of 0.3 M to a reaction solution and amplification was conducted in a Solexa sequencing system. The results were compared to those obtained when no trehalose was added. The samples employed, prepared by the CAGE method (obtained by cleaving just 27 by off the 5′ end of the cDNA), were different 27 by DNA fragments than those in 10 above.

[2] = system: XhoI, PstI, HindIII, and EcoRI; assay: DNA cleavage reactions by various restriction enzymes on bead and plate surfaces; assay type: biochemical; conditions: 0.6 M trehalose vs none, all enzymes
Description: Differences in activity based on the type of enzyme in reactions under conditions where trehalose was present and absent and for various reactions surface shapes were examined. XhoI, PstI, HindIII, and EcoRI were employed as restriction enzymes to conduct reactions cleaving the same site on a DNA fragment with different enzymes (Scheme 8).
Cleavage reactions by various restriction enzymes were conducted on biotin-labeled DNA fragments I, II, and III (Seq. ID Nos. 4 to 6, Scheme 4) on bead surfaces. […] Paramagnetic streptavidin beads were washed with accessory 1× binding buffer, recovered with a magnetic stand to remove the supernatant, and suspended in the same buffer. […] The precipitate of DNA fragments obtained was dissolved in 1× TE (pH 7.5) and analyzed with Bioanalyzer DNA 1000 assay (Agilent Technologies).
Biotin-labeled DNA fragments II and III (Seq. ID Nos. 5 and 6, Scheme 4) were subjected to cleavage reactions by different restriction enzymes on horizontal streptavidin-coated plate surfaces. […] The precipitate of DNA fragments obtained was dissolved in 1× TE (pH 7.5) and analyzed with Bioanalyzer DNA 1000 assay (Agilent Technologies).

[3] = 0.3 M trehalose in cluster amplification vs none

**Q.** Which “fluorescence intensity of each base in the CAGE samples” value [1, 3] does the source give for OC[C@H]1O[C@H](O[C@H]2O[C@H](CO)[C@@H](O)[C@H](O)[C@H]2O)[C@H](O)[C@@H](O)[C@@H]1O [trehalose, D(+)-trehalose] here?
**A.** higher level of fluorescence intensity

**Q.** What about the sequence level [1, 3] of the same compound?
**A.** increased

**Q.** What about the “length of the sequence that was determined” value ([1]; 0.6 M trehalose vs none) of the same compound?
**A.** increased

**Q.** And the “regions prepared by the CAGE method (CAGE tag) among DNA fragments analyzed” value ([1]; 0.6 M trehalose vs none)?
**A.** more regions prepared by the CAGE method (the CAGE tag) were contained

**Q.** And the “fluorescence intensity of each base” value ([1]; 0.6 M trehalose, data not shown)?
**A.** strongly displayed

**Q.** What about the “num of CAGE tag” value ([1]; region s1) of the same compound?
**A.** 196840

**Q.** And the “num of sequence read” value ([1]; region s1)?
**A.** 252820

**Q.** And the “num of CAGE tag” value ([1]; region s2)?
**A.** 421412

**Q.** And the “num of sequence read” value ([1]; region s2)?
**A.** 523387

**Q.** What about the “num of CAGE tag” value ([1]; region s3) of the same compound?
**A.** 540268

**Q.** And the “num of sequence read” value ([1]; region s3)?
**A.** 648786

**Q.** And the “num of CAGE tag” value ([1]; region s5)?
**A.** 317440

**Q.** And the “num of sequence read” value ([1]; region s5)?
**A.** 392534

**Q.** What about the “num of CAGE tag” value ([1]; region s6) of the same compound?
**A.** 627739

**Q.** What about the “num of sequence read” value ([1]; region s6) of the same compound?
**A.** 728614

**Q.** What about the “num of CAGE tag” value ([1]; region s7) of the same compound?
**A.** 798438

**Q.** What about the “num of sequence read” value ([1]; region s7) of the same compound?
**A.** 904101

**Q.** What about the “num of CAGE tag” value ([1]; total of regions) of the same compound?
**A.** 2902137

**Q.** And the “num of sequence read” value ([1]; total of regions)?
**A.** 3450242

**Q.** And the “enzymatic activity in cleavage reactions” value [2]?
**A.** increased activity
